Source: patent publication US4424223A, “Polycyclic compounds containing a double bond in the D-ring pharmaceutical compositions containing them, and methods of treating psoriasis with them” (Richter Gedeon Vegyeszeti Gyar RT, priority 1981, dated 1984)
pIC50: −log10 of the molar value. Counter-ions that a name gives are not always drawn. Each block holds one compound with its values, some of them ahead of it.

Columns and labels:
psoriasis [1] = test: Clinical test of topical creams on patients suffering from psoriasis (plaque method); assay type: in vivo, patients (human); conditions: cream with 2% active ingredient, scale 0-3
Experimental: The first clinical tests were carried out with preparations for topical use, e.g. ointments, creams, solutions, tinctures, pastes, aerosols, etc. containing the new compound according to the invention as an active ingredient. More particularly, creams containing 2%, 1%, 0.5%, 0.25% and […], resp. of 17,18-dehydro-apovincaminol-3',4',5'-trimethoxy-benzoate were employed.
Clinical tests were performed on patients suffering from psoriasis. During the tests the patients have not received any systemic, e.g. immunosuppressive, cytostatic or glucocorticoid treatment for their basic disease.
Groups of 5 were examined by the so-called plaque method. One side of symmetrical skin lesions was treated by a creme containing the active ingredient in the desired concentration, while on the other side a placebo was applied. The remaining psoriatic sites on the skin were subjected to other topical treatments for example with ointments containing flumethasone pivalate and salicylic acid, as active ingredient, which are widely used for the treatment of psoriasis.
The tests were started with creams having a higher active ingredient concentration and then further patients were treated with preparations containing the smallest effective active ingredient concentration.
The efficiency was evaluated upon observing three symptoms: inflammation, infiltration and desquamation (peeling). The intensity of the symptoms was qualified by scores between 0 and 3. The total number of scores served as a measure of the reduction of symptoms. The results were evaluated by methods of mathematical statistics. During the treatment undesirable side effects have never been observed.
Evaluations were made before the treatment (I), after a one-week treatment (II) and after a two-week treatment (III). The results set forth in the following table are the average number of scores (total number of scores/number of patient) for creams containing 2% of active ingredient.

[2] = test system: phosphodiesterase isolated from cattle heart; test: Inhibition of phosphodiesterase isolated from cattle heart (radioisotopic, 3H-c-AMP); assay type: biochemical; conditions: for pIC50: cattle heart, read off from curve, 50% decrease of enzyme activity, read-out: I50 on phosphodiesterase
Experimental: (§1) The model experiments were performed by means of phosphodiesterase isolated from animal tissues (rat brain, cattle brain, cattle heart). The enzyme was isolated by the technique of J. Schro/ der and H. V. Richenberg [Biochem. Biophys. Acta 302, 50 (1973)] whereupon the phosphodiesterase isolated was purified according to the method of J. G. Hardman and E. W. Sutherland [J. Biol. Chem. 240, 3704 (1965)] and the activity of the purified enzyme was measured by a radioisotopic method developed by G. Po/ ch, in the presence of an excess amount of c-AMP tricium-labeled (10.1 mmoles of a c-AMP substrate containing 2.59K Bq of 3H-c-AMP), in an incubator. The measurement was first carried out without the inhibitory substance and then in the presence of 17,18-dehydro-apivincaminol-3',4',5'-trimethoxy-benzoate as an inhibitor agent, after an incubation time of 20 minutes [N.S. Arch. Pharmacol. 268, 272 (1971)]. From the test compound a 1 mmole stock solution was prepared with aqueous hydrochloric acid solution and different amounts of the stock solution were added to the enzyme preparates corresponding to 5×10^-6, 1×10^-5 and 5×10^-5 mole/lit. of the test compound. A solution of papaverine used as reference compound is added to the enzyme preparate in an analogous manner.
(§2) The tests on an enzyme isolated from cattle brain and cattle heart, resp. were carried out in an analogous way.

[3] = test system: phosphodiesterase isolated from cattle brain; test: Inhibition of phosphodiesterase isolated from cattle brain (radioisotopic, 3H-c-AMP); assay type: biochemical; conditions: for pIC50: cattle brain, read off from curve, 50% decrease of enzyme activity, read-out: I50 on phosphodiesterase
Experimental: as §1, §2

[4] = test system: phosphodiesterase isolated from rat brain; test: Inhibition of phosphodiesterase isolated from rat brain (radioisotopic, 3H-c-AMP); assay type: biochemical; conditions: for effect of the test compound on enzyme activity: 20 minutes incubation; for pIC50: rat brain, read off from curve, 50% decrease of enzyme activity, read-out: I50 on phosphodiesterase
Experimental: as §1
The activity of the solutions containing 17,18-dehydro-apovincaminol-3',4',5'-trimethoxy-benzoate and papaverine was expressed in percents of the control (enzyme solution without any inhibitory substance, 100%). The results obtained on an enzyme isolated from rat brain are as follows:
as §2

psoriasis [5] = conditions: phosphodiesterase inhibitor; Voorhees et al., Arch. Derm. 104, 359 (1971); cited from earlier work
[6] = rat brain enzyme, 1 × 10^-5 mole/lit.
[7] = rat brain enzyme, 5 × 10^-5 mole/lit.
[8] = rat brain enzyme, 5 × 10^-6 mole/lit.

times more effective than papaverine ([2]; cattle heart enzyme, versus papaverine): 18 times | times more effective than papaverine ([3]; cattle brain enzyme, versus papaverine): 6 times | times more effective than papaverine ([4]; rat brain enzyme, versus papaverine): 7 times
SMILES: CC[C@]12C=CCN3CCc4c(n(c5ccccc45)C(COC(=O)c4cc(OC)c(OC)c(OC)c4)=C1)[C@@H]32 [17,18-Dehydro-apovincaminol-3',4',5'-trimethoxy-benzoate]
Average number of scores, Desquamation (psoriasis [1]; I: before the treatment): 2.0 scores | Average number of scores, Infiltration (psoriasis [1]; I: before the treatment): 2.6 scores | Average number of scores, Inflammation (psoriasis [1]; I: before the treatment): 2.8 scores | Average number of scores, Desquamation (psoriasis [1]; II: after one-week treatment): 0.8 scores | Average number of scores, Infiltration (psoriasis [1]; II: after one-week treatment): 1.6 scores | Average number of scores, Inflammation (psoriasis [1]; II: after one-week treatment): 2.2 scores | Average number of scores, Desquamation (psoriasis [1]; III: after two-week treatment): 0.2 scores | Average number of scores, Infiltration (psoriasis [1]; III: after two-week treatment): 0.6 scores | Average number of scores, Inflammation (psoriasis [1]; III: after two-week treatment): 1.6 scores

pIC50 [2]: 5.52 | pIC50 [3]: 4.82 | effect of the test compound on enzyme activity [4, 6]: 40.7 % of the control | effect of the test compound on enzyme activity [4, 7]: 38.6 % of the control | effect of the test compound on enzyme activity [4, 8]: 84.7 % of the control | pIC50 [4]: 5.00
SMILES: CC[C@]12C=CCN3CCc4c(n(c5ccccc45)C(COC(=O)c4cc(OC)c(OC)c(OC)c4)=C1)[C@@H]32 [17,18-dehydro-apovincaminol-3',4',5'-trimethoxy-benzoate.HCl]

SMILES: COc1ccc(Cc2nccc3cc(OC)c(OC)cc23)cc1OC [papaverine.HCl, papaverine, reference compound]
pIC50 [2]: 4.30 | pIC50 [3]: 4.05 | effect of the test compound on enzyme activity [4, 6]: 89.7 % of the control | effect of the test compound on enzyme activity [4, 7]: 60.5 % of the control | effect of the test compound on enzyme activity [4, 8]: 91.2 % of the control | pIC50 [4]: 4.15

SMILES: COc1ccc(Cc2nccc3cc(OC)c(OC)cc23)cc1OC [papaverine]
effect on psoriasis (psoriasis [5]): successfully influenced psoriasis
